Experimental data published in PMC7932537, “Quantitative profiling of protease specificity” (PLoS Computational Biology, 2021).

How the values were obtained:
MMP-2 = biological target: T1, MMP-2 (Homo sapiens, UniProt P08253); assay: K(obs) of individual phage substrates (set of 1369); type: biochemical; details: MMP2; individual phage substrate from the set of 1369 peptides; hyphen in the sequence marks the cleavage position
T1 sequence (P08253 110-660): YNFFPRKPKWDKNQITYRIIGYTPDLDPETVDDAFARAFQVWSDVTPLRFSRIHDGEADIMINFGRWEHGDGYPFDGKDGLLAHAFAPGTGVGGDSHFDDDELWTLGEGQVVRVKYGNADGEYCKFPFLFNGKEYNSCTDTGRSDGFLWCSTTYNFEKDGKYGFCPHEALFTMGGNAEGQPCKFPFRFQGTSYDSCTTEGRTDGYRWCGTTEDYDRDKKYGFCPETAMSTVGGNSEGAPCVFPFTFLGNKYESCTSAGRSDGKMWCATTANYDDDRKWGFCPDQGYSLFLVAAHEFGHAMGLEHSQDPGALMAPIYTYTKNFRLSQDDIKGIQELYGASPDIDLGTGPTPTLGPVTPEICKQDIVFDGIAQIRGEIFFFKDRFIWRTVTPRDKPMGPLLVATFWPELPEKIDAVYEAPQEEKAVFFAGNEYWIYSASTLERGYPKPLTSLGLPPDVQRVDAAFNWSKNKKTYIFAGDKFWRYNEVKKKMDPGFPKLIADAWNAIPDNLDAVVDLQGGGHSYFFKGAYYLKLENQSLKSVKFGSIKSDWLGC

MMP-9 [1] = assay: Substrate phage display with NGS: relative probability (RP) of P3-P1' tetramer clusters; type: biochemical, human; details: MMP9; RP of the substrate's P3-P1' tetramer, substrate phage display with NGS;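 note: ratio of tetramer probability after protease selection to that in naive phage library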
MMP-9 [2] = biological target: MMP-9 (Homo sapiens, UniProt P14780); assay: K(obs) of individual phage substrates (set of 1369); type: biochemical; details: MMP9; individual phage substrate of the set of 1369 peptides; dash in sequence marks cleavage position
Chain of MMP-9 (Homo sapiens, UniProt P14780) (P14780 94-707): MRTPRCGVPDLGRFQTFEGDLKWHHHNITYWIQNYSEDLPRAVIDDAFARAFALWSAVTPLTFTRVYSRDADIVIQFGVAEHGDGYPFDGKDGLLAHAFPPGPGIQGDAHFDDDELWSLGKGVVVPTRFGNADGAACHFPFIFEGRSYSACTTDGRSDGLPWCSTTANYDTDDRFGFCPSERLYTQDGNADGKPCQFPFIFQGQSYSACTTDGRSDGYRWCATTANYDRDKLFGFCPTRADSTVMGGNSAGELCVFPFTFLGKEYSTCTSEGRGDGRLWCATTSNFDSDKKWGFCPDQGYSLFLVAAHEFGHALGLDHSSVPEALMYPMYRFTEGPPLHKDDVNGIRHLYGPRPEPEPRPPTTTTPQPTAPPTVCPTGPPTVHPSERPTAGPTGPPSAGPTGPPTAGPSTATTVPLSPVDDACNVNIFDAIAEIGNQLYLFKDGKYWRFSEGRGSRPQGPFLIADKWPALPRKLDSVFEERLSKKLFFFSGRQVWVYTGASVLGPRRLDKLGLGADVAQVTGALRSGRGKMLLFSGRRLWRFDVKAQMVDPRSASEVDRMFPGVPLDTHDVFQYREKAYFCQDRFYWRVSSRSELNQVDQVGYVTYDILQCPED

Row | Substance | Kobs (MMP-2) [M⁻¹ s⁻¹] | relative probability (RP) (MMP-9 [1]) | Kobs (MMP-9 [2]) [M⁻¹ s⁻¹]
1 | MALSS-LTASG | 7015.91 | 4.987 | 0
2 | ATLAA-WTASG | 10866.7 | 1.553 | 113.394
3 | SGVRA-IRQTA | 3253.29 | 39.7636 | 12792.1
4 | ESIRG-LTASG | 12792.1 | 41.2198 | 6688.74
5 | GYPRG-LGTAS | 12792.1 | 47.3825 | 12792.1
6 | HVVAQ-LTASG | 12792.1 | 6.994 | 551.253
7 | GVPKN-QMTAS | 4205.91 | 35.1259 | 7815.03
8 | MPMGR-LTASG | 4082.43 | 2.466 | 113.394
9 | SKPWK-LTASG | 1561.44 | 43.1496 | 12792.1
10 | RMPRQ-VTASG | 1196.62 | 25.107 | 1981.53
11 | TSARK-LTASG | 323.705 | 0 | 1112.44
12 | RLVNW-MTASG | 3850.82 | 19.0749 | 2687.73
13 | SGPVH-MWNTA | 1154.21 | 35.975 | 1154.21
14 | NIPTR-LTASG | 12792.1 | 15.5872 | 1327.88
15 | EGPMR-LTASG | 12792.1 | 42.6597 | 12792.1
16 | GSPLP-FITAS | 12792.1 | 46.6229 | 12792.1
17 | SGPWA-ITGTA | 12792.1 | 50.8721 | 12792.1
18 | SGPHY-LMMTA | 6396.07 | 37.3972 | 6688.74
19 | KSPTG-LTASG | 10866.7 | 39.8897 | 8321.48
20 | GNPAQ-MRTAS | 12792.1 | 38.7952 | 7015.91
21 | PKPAR-LTASG | 12792.1 | 40.1634 | 12792.1
22 | SGPRN-LAVTA | 12792.1 | 48.2698 | 12792.1
23 | LQLAL-YTASG | 12792.1 | 1.077 | 912.511
24 | FIPFP-FTASG | 12792.1 | 42.1583 | 12792.1

Row | Substance | Kobs (MMP-2) [M⁻¹ s⁻¹] | relative probability (RP) (MMP-9 [1]) | Kobs (MMP-9 [2]) [M⁻¹ s⁻¹]
25 | SGVKW-LMSTA | 4335.13 | 39.0108 | 12792.1
26 | HVPRQ-VTASG | 27.918 | 25.107 | 8941.32
27 | SGPAS-VRNTA | 12792.1 | 25.8589 | 2837.92
28 | GMPLG-LRTAS | 10866.7 | 48.9856 | 12792.1
29 | KSISN-WTASG | 10866.7 | 0.06259 | 84.609
30 | GVLRN-LITAS | 12792.1 | 37.603 | 6688.74
31 | SGPRN-YHGTA | 12792.1 | 46.9938 | 12792.1
32 | SGPRD-ILATA | 12792.1 | 41.2501 | 12792.1
33 | SGAYN-FQATA | 3438.54 | 19.0941 | 12792.1
34 | TPPSS-LTASG | 12792.1 | 46.2595 | 12792.1
35 | AMPKH-LTASG | 12792.1 | 46.5072 | 12792.1
36 | DSPLS-LTASG | 12792.1 | 48.1735 | 12792.1
37 | GWIAT-LRTAS | 5090.5 | 0.199 | 1561.44
38 | RAPVA-FTASG | 12792.1 | 39.0112 | 12792.1
39 | KRVYL-LTASG | 484.315 | 2.817 | 2687.73
40 | VLLGN-FTASG | 12792.1 | 0.6963 | 690.17
41 | NSPSD-LTASG | 12792.1 | 38.1321 | 9740.44
42 | SGPRS-LKSTA | 12792.1 | 44.7764 | 12792.1
43 | SLPLL-LTASG | 2996.69 | 32.5638 | 12792.1
44 | SGPKF-LVMTA | 1981.53 | 42.7484 | 12792.1
45 | SRPRT-LTASG | 12792.1 | 42.2705 | 12792.1
46 | SQPMA-YTASG | 12792.1 | 49.7335 | 12792.1
47 | RRPVA-YTASG | 12792.1 | 47.2844 | 12792.1
48 | VFPQG-MTASG | 2476.66 | 46.1377 | 8321.48

Row | Substance | Kobs (MMP-2) [M⁻¹ s⁻¹] | relative probability (RP) (MMP-9 [1]) | Kobs (MMP-9 [2]) [M⁻¹ s⁻¹]
49 | MSPKG-VTASG | 12792.1 | 38.7703 | 12792.1
50 | WAINA-LTASG | 4922.1 | 1.369 | 551.253
51 | RVVAN-LTASG | 12792.1 | 32.1971 | 4922.1
52 | GMVRG-VTASG | 7386.83 | 13.8249 | 2761.81
53 | NPPSH-LTASG | 12792.1 | 43.8368 | 12792.1
54 | HYVRA-HTASG | 10866.7 | 18.814 | 4205.91
55 | RRPSA-LTASG | 12792.1 | 47.6113 | 10866.7
56 | VMPSG-FTASG | 8321.48 | 36.6478 | 12792.1
57 | KFPWN-YTASG | 2097.28 | 48.0713 | 12792.1
58 | SDVRF-LTASG | 9740.44 | 26.3541 | 5889.62
59 | GRPSA-MTTAS | 3741.87 | 46.4881 | 9740.44
60 | SGPRW-LMSTA | 12792.1 | 47.776 | 12792.1
61 | SSPLA-LTASG | 12792.1 | 48.3776 | 12792.1
62 | SGVRG-LFTTA | 6131.32 | 42.3063 | 12792.1
63 | WYPSK-LTASG | 12792.1 | 38.9571 | 10866.7
64 | KVLSA-VTASG | 12792.1 | 0.4242 | 12792.1
65 | SGPAS-FSVTA | 12792.1 | 30.2578 | 2344.36
66 | ESIRH-LTASG | 12792.1 | 35.7683 | 5667.28
67 | SGPVS-MRYTA | 12792.1 | 41.2029 | 7015.91
68 | FIPMW-STASG | 451.441 | 27.7553 | 6131.32
69 | GLVWN-LWTAS | 1660.66 | 38.922 | 8321.48
70 | YIPTA-FTASG | 12792.1 | 24.5969 | 9740.44
